# Test results from patent publication US5792882A, “Phenoxyphenyl cyclopentenyl hydroxyureas” (Pfizer Inc., priority 1993, dated 1998).
# What was measured:
# [1] = tested on: platelet activating factor (PAF) induced lethality; assay: PAF induced lethality in mice, test compound administered orally; format: in vivo, ICR mice (male); details: Mus musculus, oral administration 45 min prior to PAF injection (12 μg/Kg i.v.), mortality 1 hr after PAF
# Protocol: 2) In vivo system measuring effects of test compound administered orally against platelet activating factor (PAF) induced lethality in mice
# The in vivo potency after oral administration of test compounds to ICR mice (male) was determined using the PAF lethality assay in a similar manner as that described in the following articles: J. M. Young, P. J. Maloney, S. N. Jubb, and J. S. Clark, Prostaglandins, 30, 545 (1985); M. Criscuoli and A. Subissi, Br. J. Pharmac., 90, 203 (1987); and H. Tsunoda, S. Abe, Y. Sakuma, S. Katayama and K. Katayama, Prostaglandins Leukotrienes and Essential Fatty Acids, 39, 291 (1990). PAF was dissolved at a concentration of 1.2 μg/ml in 0.05 mg/ml propranolol-saline containing 0.25% bovine serum albumin (BSA) and injected intravenously into mice at a dose of 12 μg/Kg. Mortality was determined 1 hr after PAF injection. To investigate the effect of 5-LO inhibitors, compounds were dissolved in 5% tween 80, 5% EtOH-saline and administered orally (0.1 ml/10 g) 45 min prior to PAF injection. Linear regression was used to estimate ED50 values.
# 5-lipoxygenase (LO) = target: T1, 5-lipoxygenase (LO) (Homo sapiens, UniProt P09917); assay: In vitro assay using heparinized human whole blood (HWB); format: cell-based; details: calcium ionophore stimulated, 10 min preincubation at 37° C., read-out: IC50, inhibition of 5-lipoxygenase metabolism of arachidonic acid
# T1 construct: Aliquots of heparinized human whole blood (1 ml) from healthy donors; endogenous in cells; host or cells: heparinized human whole blood from healthy donors
# T1 sequence (P09917 1-674): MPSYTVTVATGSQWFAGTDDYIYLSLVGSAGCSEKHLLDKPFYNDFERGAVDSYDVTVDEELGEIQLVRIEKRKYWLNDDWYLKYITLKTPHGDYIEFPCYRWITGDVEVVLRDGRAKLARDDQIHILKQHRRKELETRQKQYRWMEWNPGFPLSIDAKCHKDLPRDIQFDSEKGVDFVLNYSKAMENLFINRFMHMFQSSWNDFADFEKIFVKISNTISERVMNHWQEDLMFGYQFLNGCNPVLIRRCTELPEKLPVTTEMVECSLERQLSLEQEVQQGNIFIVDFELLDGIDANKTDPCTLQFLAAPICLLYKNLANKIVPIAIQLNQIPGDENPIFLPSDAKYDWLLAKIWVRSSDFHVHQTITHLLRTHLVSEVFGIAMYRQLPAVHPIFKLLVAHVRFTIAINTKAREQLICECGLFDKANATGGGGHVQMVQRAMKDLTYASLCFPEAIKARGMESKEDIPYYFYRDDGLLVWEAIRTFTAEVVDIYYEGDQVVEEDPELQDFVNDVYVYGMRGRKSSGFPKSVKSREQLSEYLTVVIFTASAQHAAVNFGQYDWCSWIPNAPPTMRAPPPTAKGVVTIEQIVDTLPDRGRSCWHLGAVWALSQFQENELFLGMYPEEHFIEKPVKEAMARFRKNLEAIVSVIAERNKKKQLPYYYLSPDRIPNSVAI
# Protocol: 1) In vitro assay using heparinized human whole blood (HWB)
# Aliquots of heparinized human whole blood (1 ml) from healthy donors were preincubated with drugs dissolved in dimethyl sulfoxide (final concentration, 0.1%) for 10 min at 37° C., then calcium ionophore […] (60 μM) and Heparapid (2.5%, Sekisui Chemical Co. LTD., Japan) were added and incubations were continued for further 30 min. Reactions were terminated by rapid cooling in an ice bath. Blood-clots induced by Heparapid were removed by centrifugation. Acetonitrile (ACN, 1.5 ml) and PGB2 (200 ng, as internal standard) were added to supernatants. Samples were mixed by Voltex mixer and precipitated proteins were removed by centrifugation. Supernatants were diluted to 15% ACN with water and were loaded onto prewashed Sep-Pak C18 cartridge (Waters Associates, Milford, Miss., USA) and arachidonate metabolites were eluted with 4 ml of 70% methanol. Methanolic extract was evaporated and the residue was then reconstituted in 250 μl of 67% ACN.
# ACN reconstituents (100 μl) were injected onto a reversed phase C18 column (Wakosil SC18, 4.6×150 mm, Wako Pure Chemical Industries LTD, Japan). Column temperature was 40° C. HPLC analysis was performed by Hewlett Packard model 1090M HPLC system. The chromatographic was achieved by gradient elution using two different mobile phase ( mobile phase A consisted of 10% ACN, 0.1% trifluoroacetic acid and 0.05% triethylamine; mobile phase B consisted of 80% ACN, 0.1% trifluoroacetic acid and 0.05% triethylamine). Each mobile phase was continuously sparged with helium. The HPLC gradient was programmed as follows (where A+B=100): from 0 to 9.7 min, a linear gradient from 35 to 100% of […] with flow rate of 1 ml/min. Peaks of eluting products were quantitated by UV absorbance (LTB4 and PGB2 at 275 nm; HHT and 5-HETE at 235 nm, respectively) and were corrected by PGB2 recovery. Linear regression was used to estimate IC50 values. […]
Structure (SMILES),ED50 [1],IC50 (5-lipoxygenase (LO))
"NC(=O)N(O)C1C=C(c2cccc(Oc3ccc(F)cc3)c2)CC1 (single isomer, unassigned; (+)) [Example 1, (+)-N-[3-[3-(4-Fluorophenoxy)phenyl]-2-cyclopenten-1-yl]-N-hydroxyurea]",1 to 10 mg/kg,~500 nM
"NC(=O)N(O)C1C=C(c2cccc(Oc3ccccc3)c2)CC1 (single isomer, unassigned; (+)) [Example 2, (+)-N-[3-(3-Phenoxyphenyl)-2-cyclopenten-1-yl]-N-hydroxyurea]",1 to 10 mg/kg,~500 nM
"NC(=O)N(O)C1C=C(c2cccc(Oc3ccc(Cl)cc3)c2)CC1 (single isomer, unassigned; (+)) [Example 3, (+)-N-[3-[3-(4-Chlorophenoxy)phenyl]-2-cyclopenten-1-yl]-N-hydroxyurea]",1 to 10 mg/kg,~500 nM
